Measured values published in patent US20260042731A1, “(2,4-DICHLOROPHENOXY)ACETIC ACID ANALOGS” (CORTEVA AGRISCIENCE LLC, priority 2022, published 2026).
“And” between values parts separate entries of the source, which are not always exact repeats. Equal values may be shown once. Read-outs that look alike come from different tables or passages of the source.

Key:
[1] = system: glyphosate resistant Conyza canadensis (L.) (ERICA), horseweed; assay: Postemergence herbicide evaluation, growth of Conyza canadensis (ERICA); format: in vivo; conditions: for Ave. ERICA, percent reduction in plant size relative to the untreated control: 21 DAA; for pest or weed control at 280 g/ha / pest or weed control at 560 g/ha: Erigeron canadensis, post-emergence, percent reduction in plant size relative to untreated control, read-out: Ave. ERICA
[2] = system: Chenopodium album (CHEAL), common lambsquarters; assay: Postemergence herbicide evaluation, growth of Chenopodium album (CHEAL); format: in vivo; conditions: for Ave. CHEAL, percent reduction in plant size relative to the untreated control: 21 DAA; for pest or weed control at 280 g/ha / pest or weed control at 560 g/ha: Chenopodium album, post-emergence, percent reduction in plant size relative to untreated control, read-out: Ave. CHEAL
[3] = system: weeds (ABUTH, AMATA, AMBEL, CHEAL, ERICA); assay: Postemergence herbicide evaluation, overall average % weed control across ABUTH, AMATA, AMBEL, CHEAL, ERICA; format: in vivo; conditions: post-emergence, average over the five weeds, read-out: Overall Ave % Weed Control; for pest or weed control at 280 g/ha: 280 g ae/ha; for pest or weed control at 560 g/ha: 560 g ae/ha
[4] = system: Ambrosia artemisiifolia (AMBEL), common ragweed; assay: Postemergence herbicide evaluation, growth of Ambrosia artemisiifolia (AMBEL); format: in vivo; conditions: for AVE. AMBEL, percent reduction in plant size relative to the untreated control: 21 DAA; for pest or weed control at 280 g/ha / pest or weed control at 560 g/ha: Ambrosia artemisiifolia, post-emergence, percent reduction in plant size relative to untreated control, read-out: AVE. AMBEL
[5] = system: ABUTH, AMATA, AMBEL, CHEAL, ERICA weeds; assay: Postemergence herbicide evaluation, overall average % weed control across ABUTH, AMATA, AMBEL, CHEAL, ERICA; format: in vivo; conditions: 21 DAA
Description: For example, the pesticidal activity may include herbicidal activity.

[6] = system: Amaranthus rudis (AMATA), tall water hemp; assay: Postemergence herbicide evaluation, growth of Amaranthus rudis (AMATA); format: in vivo; conditions: for Ave. AMATA, percent reduction in plant size relative to the untreated control: 21 DAA; for pest or weed control at 280 g/ha / pest or weed control at 560 g/ha: Amaranthus tuberculatus, post-emergence, percent reduction in plant size relative to untreated control, read-out: Ave. AMATA
[7] = system: Abutilon theophrasti (ABUTH), velvetleaf; assay: Postemergence herbicide evaluation, growth of Abutilon theophrasti (ABUTH); format: in vivo; conditions: for AVE. ABUTH, percent reduction in plant size relative to the untreated control: 21 DAA; for pest or weed control at 280 g/ha / pest or weed control at 560 g/ha: Abutilon theophrasti, post-emergence, percent reduction in plant size relative to untreated control, read-out: AVE. ABUTH
[8] = Volatility of compounds measured by thermogravimetric analysis (TGA); format: physicochemical
Horseweed (ERICA) = assay: Greenhouse post-emergence mixture trials, percent visual control; format: in vivo; conditions: 21 DAA
Corn (ZEAMX) = assay: as above; format: in vivo; conditions: Trial Bridge 2, ZEAMX, 21 DAA
Velvetleaf (ABUTH) = assay: as above; format: in vivo; conditions: Trial Bridge 2, ABUTH, 21 DAA, compound 0 g ae/ha
Tall Waterhemp (AMATA) = assay: as above; format: in vivo; conditions: Trial Bridge 2, 21 DAA
[9] = system: Common Lambsquarters (CHEAL); assay: as above; format: in vivo; conditions: CHEAL, 21 DAA
[10] = Trial Bridge 2, Trifludimoxazin 25 g ai or ae/ha alone (B2 rate 0)
[11] = Trial Bridge 2, Trifludimoxazin 50 g ai or ae/ha alone (B2 rate 0)
[12] = Trifludimoxazin 12.5 g ai or ae/ha alone (B2 rate 0)
[13] = Trifludimoxazin 25 g ai or ae/ha alone (B2 rate 0)
[14] = Trifludimoxazin 50 g ai or ae/ha alone (B2 rate 0)

N/C(Cc1ccccc1)=N\OC(=O)COc1ccc(Cl)cc1Cl [Compound A17, N′-(2-(2,4-Dichlorophenoxy)acetoxy)-2-phenylacetimidamide]
Ave. ERICA, percent reduction in plant size relative to the untreated control ([1]; 280 g ae/ha): 97% | Ave. ERICA, percent reduction in plant size relative to the untreated control ([1]; 560 g ae/ha): 94% | pest or weed control at 280 g/ha ([1]; 168 h, 280 g ae/ha, 7 DAA): 65% | pest or weed control at 560 g/ha ([1]; 168 h, 560 g ae/ha, 7 DAA): 65% | pest or weed control at 280 g/ha ([1]; 336 h, 280 g ae/ha, 14 DAA): 85% | pest or weed control at 560 g/ha ([1]; 336 h, 560 g ae/ha, 14 DAA): 83% | Ave. CHEAL, percent reduction in plant size relative to the untreated control ([2]; 280 g ae/ha): 85% | Ave. CHEAL, percent reduction in plant size relative to the untreated control ([2]; 560 g ae/ha): 90% | pest or weed control at 280 g/ha ([2]; 168 h, 280 g ae/ha, 7 DAA): 70% | pest or weed control at 560 g/ha ([2]; 168 h, 560 g ae/ha, 7 DAA): 68% | pest or weed control at 280 g/ha ([2]; 336 h, 280 g ae/ha, 14 DAA): 78% | pest or weed control at 560 g/ha ([2]; 336 h, 560 g ae/ha, 14 DAA): 85% | pest or weed control at 280 g/ha ([3]; 168 h, 7 DAA): 64% | pest or weed control at 560 g/ha ([3]; 168 h, 7 DAA): 70% | pest or weed control at 280 g/ha ([3]; 336 h, 14 DAA): 78% | pest or weed control at 560 g/ha ([3]; 336 h, 14 DAA): 85% | AVE. AMBEL, percent reduction in plant size relative to the untreated control ([4]; 280 g ae/ha): 92% | AVE. AMBEL, percent reduction in plant size relative to the untreated control ([4]; 560 g ae/ha): 99% | pest or weed control at 280 g/ha ([4]; 168 h, 280 g ae/ha, 7 DAA): 65% | pest or weed control at 560 g/ha ([4]; 168 h, 560 g ae/ha, 7 DAA): 80% | pest or weed control at 280 g/ha ([4]; 336 h, 280 g ae/ha, 14 DAA): 86% | pest or weed control at 560 g/ha ([4]; 336 h, 560 g ae/ha, 14 DAA): 96% | Overall Ave % Weed Control ([5]; 280 g ae/ha): 84% | Overall Ave % Weed Control ([5]; 560 g ae/ha): 91% | Ave. AMATA, percent reduction in plant size relative to the untreated control ([6]; 280 g ae/ha): 83% | Ave. AMATA, percent reduction in plant size relative to the untreated control ([6]; 560 g ae/ha): 89% | pest or weed control at 280 g/ha ([6]; 168 h, 280 g ae/ha, 7 DAA): 73% | pest or weed control at 560 g/ha ([6]; 168 h, 560 g ae/ha, 7 DAA): 70% | pest or weed control at 280 g/ha ([6]; 336 h, 280 g ae/ha, 14 DAA): 78% | pest or weed control at 560 g/ha ([6]; 336 h, 560 g ae/ha, 14 DAA): 80% | AVE. ABUTH, percent reduction in plant size relative to the untreated control ([7]; 280 g ae/ha): 65% | AVE. ABUTH, percent reduction in plant size relative to the untreated control ([7]; 560 g ae/ha): 83% | pest or weed control at 280 g/ha ([7]; 168 h, 280 g ae/ha, 7 DAA): 48% | pest or weed control at 560 g/ha ([7]; 168 h, 560 g ae/ha, 7 DAA): 68% | pest or weed control at 280 g/ha ([7]; 336 h, 280 g ae/ha, 14 DAA): 65% | pest or weed control at 560 g/ha ([7]; 336 h, 560 g ae/ha, 14 DAA): 80% | TGA Data (rate of weight loss, volatility) [8]: 4.1 µg/min

C#CCN1C(=O)C(F)(F)Oc2cc(F)c(-n3c(=O)n(C)c(=S)n(C)c3=O)cc21 [Trifludimoxazin, trifludimoxazin]
% Control (Horseweed (ERICA); [10]): 25% and 30% | % Control (Horseweed (ERICA); [11]): 30% and 25% | % Control (Corn (ZEAMX); [12]): 5% and 10% | % Control (Corn (ZEAMX); [13]): 15% and 5% and 10% | % Control (Corn (ZEAMX); [14]): 15% and 20% and 10% | % Control (Velvetleaf (ABUTH); Trifludimoxazin alone 12.5 g ai or ae/ha): 100% | % Control (Velvetleaf (ABUTH); Trifludimoxazin alone 25 g ai or ae/ha): 100% | % Control (Velvetleaf (ABUTH); Trifludimoxazin alone 50 g ai or ae/ha): 100% | % Control (Tall Waterhemp (AMATA); [12]): 100% | % Control (Tall Waterhemp (AMATA); [13]): 100% | % Control (Tall Waterhemp (AMATA); [14]): 100% | % Control ([9]; Trial Bridge 2, Trifludimoxazin 12.5 g ai or ae/ha alone (B2 rate 0)): 100% | % Control [9, 10]: 100% | % Control [9, 11]: 100%
